These results are taken from patent US20240009165A1, “GRISEOFULVIN AS AN ADJUNCT DRUG FOR THE TREATMENT OF CEREBRAL AND SEVERE MALARIA” (priority 2020, published 2024).

Assay [1] has as its system P. berghei ANKA. The assay can be described thus: Histochemical and immunofluorescence analyses of brain sections. The class given is in vivo. As to conditions: griseofulvin-treated WT-infected mice. As to the method:
Histological and immunofluorescence analyses of cerebral pathology in the brain of infected mice. For H&E staining to assess vascular blockage, hemorrhages and demyelination, brain samples were fixed with formalin for 72 hours at room temperature. After dehydrating with ethanol and treating with xylene, paraffin embedded blocks were made and sections of 7 μm thickness were prepared using rotary microtome. The sections were then processed and stained with H&E using standard protocols. Immunohistochemical analysis of IgG extravasation in the brain sections was carried out as described. Brain sections of 30 μm thickness was antigen retrieved by treating them at 95° C. for 30 min in sodium citrate buffer pH 6.0, followed by blocking with 3% H2O2 at room temperature for 30 min to prevent endogenous peroxidase activity. The sections were then incubated with HRP-conjugated goat anti-mouse IgG at 1:250 dilution in PBS containing 0.3% Triton X-100 and 0.1% BSA, followed by developing with diaminobenzidine tetrahydrochloride and counterstaining with hematoxilin. Immunofluorescence analysis of brain sections for parasite sequestration was carried out by fixing the brain samples in 4% paraformaldehyde in PBS containing 20% sucrose for 24 h at 4° C. and cryoprotecting them for 48 h in PBS containing 20% sucrose. Coronal sections of 30 μm thickness was prepared using cryostat microtome and antigen retrieval was carried out by treating them at 95° C. for 30 min in sodium citrate buffer pH 9.0. After blocking with 1% BSA, the sections were incubated with anti-CD31 mouse monoclonal antibody conjugated with Alexa Fluor 594 and anti-PbGAPDH rabbit polyclonal serum or anti-mouse CD3 rat monoclonal antibody for 16 h at 4° C. The sections were then treated with FITC-conjugated donkey anti-rabbit IgG or FITC-conjugated goat anti-rat IgG (1:200 dilution), followed by 4′,6-diamidino-2-phenylindole (DAPI) staining. Anti-mouse β-APP rabbit polyclonal antibody was used in 1:200 dilution.

A further assay has as its system parasite heme synthesis. The experiment in a line: 14C-ALA labelling of free heme in in vivo-treated pRBCs. Type of assay: cell-based, P. berghei. As to conditions: in vivo-treated pRBCs incubated in vitro with 14C-ALA for 9 h; vs untreated WT parasites. The text has this:
The present invention evaluated the potential of griseofulvin in preventing CM and treated WT-infected C57BL/6 mice from day 4 when the blood parasitemia was around 2%, and examined for CM pathogenesis. […] While ˜80% of the control mice succumbed to CM within day 10, more than 80% of the griseofulvin-treated mice were protected from CM. […] While the anemia mortality in CM-escaped control mice occurred within day 17, more than 80% of the griseofulvin-treated mice could survive beyond day 20 with almost 50% of them surviving even beyond day 24. […]
Labelling studies with ^14C-ALA. […] For ^14C-ALA labelling, blood samples were collected from griseofulvin treated and control WT-infected mice around 16:00 h and the labelling was carried out for 9 h at a radioactivity of […]. […] The upper phase was separated, dried under nitrogen stream, dissolved in methanol and analysed by TLC on silica gel using the mobile phase 2,6-lutidine and water (5:3 v/v) in ammonia atmosphere. The intensity of radiolabelling was scanned using Biomolecular Imager by exposing the TLC sheets to phosphorimager screen and the radioactive counts were measured.

The test system of assay [2] is P. berghei ANKA. The assay can be described thus: Cerebral malaria (CM) protection and mortality of PbWT-infected mice treated with griseofulvin. Type of assay: in vivo. The text has this: The present invention evaluated the potential of griseofulvin in preventing CM and treated WT-infected C57BL/6 mice from day 4 when the blood parasitemia was around 2%, and examined for CM pathogenesis. […] While ˜80% of the control mice succumbed to CM within day 10, more than 80% of the griseofulvin-treated mice were protected from CM. […] While the anemia mortality in CM-escaped control mice occurred within day 17, more than 80% of the griseofulvin-treated mice could survive beyond day 20 with almost 50% of them surviving even beyond day 24. […] To confirm that the CM protection is due to inhibition of parasite heme synthesis, the present invention analyzed heme synthesis in griseofulvin-treated and -untreated WT parasites by incubating the in vivo-treated pRBCs in vitro with ^14C-ALA (committed precursor of heme synthesis) for 9 h. There was around 60% decrease in the ^14C-labelling of free heme in griseofulvin-treated parasites. […] As observed for the KO parasites, the total Hz content in the griseofulvin-treated parasites was around 50-60% less when compared with untreated parasites and there was also close to 60% decrease in the free heme levels.
(§1) Routine propagation of P. berghei in mice and CM experiments. P. berghei ANKA WT and KO parasites were propagated in C57BL/6 male/female mice of 7-8 weeks old. Peripheral blood parasitemia was monitored by performing light microscopy for Giemsa stained thin blood smears prepared from tail vein blood. When the blood parasitemia was around 10%, 10^5 P. berghei ANKA WT or 10^5/10^7 ALAS/FC KO parasites were collected and injected intraperitoneally in 7-8 weeks old C57BL/6 male/female naïve mice to initiate CM experiments. Growth curve analysis was carried out by monitoring the blood parasitemia. The development and progression of ECM were monitored by examining RMCBS for neurological symptoms. To assess BBB integrity, Evans blue uptake assays were carried out by injecting 200 μl of 2% Evans blue in PBS intravenously and examining the extravasation of dye after one hour in the brain of the infected mice that were transcardially perfused with PBS. The extent of BBB damage was quantified by incubating the brain samples in formamide at 37° C. for 48 h, extracting the Evans blue and measuring the absorbance at 620 nm.
Griseofulvin treatment in mice. Griseofulvin was prepared by dissolving 1 or 2 mg in 40 μl DMSO and then making up the volume to 200 μl with 10% solutol HS 15 in saline. The mixture was vortexed thoroughly for 10 min to form an emulsion and injected intraperitoneally into the mice. All single dose injections were carried out at 06:00 h and double dose injections were carried out at 06:00 h and 18:00 h for the respective days. […]

The subject of assay [3] is P. berghei ANKA. The experiment in a line: Growth curve analysis (peripheral blood parasitemia) in treated mice. The conditions noted are these: 2 mg dose per day on day 4, 5, 6, 7 and 8; C57BL/6 mice. The class given is in vivo. The source says:
The present invention evaluated the potential of griseofulvin in preventing CM and treated WT-infected C57BL/6 mice from day 4 when the blood parasitemia was around 2%, and examined for CM pathogenesis. […] While ˜80% of the control mice succumbed to CM within day 10, more than 80% of the griseofulvin-treated mice were protected from CM. […] While the anemia mortality in CM-escaped control mice occurred within day 17, more than 80% of the griseofulvin-treated mice could survive beyond day 20 with almost 50% of them surviving even beyond day 24. […] To confirm that the CM protection is due to inhibition of parasite heme synthesis, the present invention analyzed heme synthesis in griseofulvin-treated and -untreated WT parasites by incubating the in vivo-treated pRBCs in vitro with ^14C-ALA (committed precursor of heme synthesis) for 9 h. […]
Routine propagation of P. berghei in mice and CM experiments. […] Peripheral blood parasitemia was monitored by performing light microscopy for Giemsa stained thin blood smears prepared from tail vein blood. […] The development and progression of ECM were monitored by examining RMCBS for neurological symptoms. […] The extent of BBB damage was quantified by incubating the brain samples in formamide at 37° C. for 48 h, extracting the Evans blue and measuring the absorbance at 620 nm. […]

Another assay concerns Plasmodium falciparum. As to conditions: humans infected with Plasmodium falciparum; reference (34); cited from earlier work.
The subject of assay [4] is P. berghei ANKA. The experiment in a line: Plasma heme, hemopexin and hemoglobin estimation in infected mice. The class given is in vivo. The conditions noted are these: griseofulvin-treated WT-infected mice. As to the method:
(§2) Heme, Hz, hemoglobin and hemopexin estimations. Free heme levels in the plasma samples of WT- and KO-infected mice were quantified using Hemin colorimetric assays. The assay is specific for free heme and it utilizes peroxidase activity of hemin to facilitate the conversion of a colorless probe to a strongly colored compound with absorbance at 570 nm. The quantification of free heme in the parasite lysates was carried out by resuspending the parasite pellets in 5 volumes of hypotonic lysis buffer containing 5 mM Tris pH 7.5 with protease inhibitors and incubating them in ice for 30 min. The lysates were then centrifuged at 20,000 g for 20 min, 4° C., and the supernatants obtained were used for free heme estimation as mentioned above for the plasma samples. The Hz content of the WT and KO parasite pellets was estimated as described. The parasite pellet was resuspended in 1 ml of 100 mM sodium acetate buffer, pH 5.0 and left at 37° C. for overnight, followed by centrifugation at 10,000 g for 5 min. The resultant pellet was resuspended in 100 mM Tris buffer pH 8.0 containing 2.5% SDS and incubated at 37° C. for 30 min, followed by centrifugation at 10,000 g for 5 min. The pellet obtained was washed once with 100 mM alkaline bicarbonate pH 9.2 and then with distilled water. The final Hz pellet was dissolved in 100 mM NaOH containing 2.5% SDS, and the absorbance was measured at 405 nm. The supernatants of sodium acetate and Tris SDS steps were collected to estimate the protein content by Micro BCA protein assay kit and heme content of the Hz was expressed per mg of total protein. To estimate the Hz content in the spleen and liver of the WT- and KO-infected mice, 50 mg tissue of the respective organs was homogenized in 50 mM Tris pH 8.0 containing 50 mM NaCl, 5 mM CaCl2 and 1% Triton X-100, and incubated for 12 h at 37° C. in the presence of proteinase K. The lysates were sonicated and centrifuged at 15,000 g for 30 min. The pellets obtained were resuspended with 100 mM sodium bicarbonate containing 2% SDS and sonicated, followed by centrifugation at 15,000 g for 15 min. After repeating this step thrice, the pellets were solubilized in 100 mM NaOH containing 2% SDS and 3 mM EDTA, and the absorbance was measured at 405 nm. In parallel, the parasite load in the organs was examined by quantitative PCR (qPCR) analysis carried out with Pb18SrRNA primers for the total RNA isolated from 30 mg tissue of the organs. After normalizing with respect to the parasite load, the total heme content of the Hz isolated was expressed per mg weight of the organ. Hemoglobin and hemopexin levels in the plasma samples of WT- and KO-infected mice were measured by ELISA.

For the next assay, the system named is hemozoin (Hz) formation. The assay can be described thus: Hemozoin and free heme estimation in parasites. Type of assay: in vivo, P. berghei. As to the method: as §2, with “To estimate the Hz content in the spleen and liver of the WT- and KO-infected mice, 50 mg tissue of the respective organs was homogenized in 50 mM Tris pH 8.0 containing 50 mM NaCl, 5 mM CaCl2 and 1% Triton X-100, and incubated for 12 h at 37° C. in the presence of proteinase K. The lysates were sonicated and centrifuged at 15,000 g for 30 min. The pellets obtained were resuspended with 100 mM sodium bicarbonate containing 2% SDS and sonicated, followed by centrifugation at 15,000 g for 15 min.” left out, “After normalizing with respect to the parasite load, the total heme content of the Hz isolated was expressed per mg weight of the organ.” left out

Assay [5] relates to P. berghei ANKA. The experiment in a line: Evans blue extravasation in the brain (BBB integrity). The class given is in vivo. The conditions noted are these: griseofulvin-treated WT-infected mice; brain on day 8 post-infection.
Description: as §1

In assay [6] the test system is P. berghei ANKA. The assay can be described thus: α,β-arteether alone or with griseofulvin in preventing CM in mice. The class given is in vivo.
Description: Griseofulvin treatment in mice. Griseofulvin was prepared by dissolving 1 or 2 mg in 40 μl DMSO and then making up the volume to 200 μl with 10% solutol HS 15 in saline. The mixture was vortexed thoroughly for 10 min to form an emulsion and injected intraperitoneally into the mice. All single dose injections were carried out at 06:00 h and double dose injections were carried out at 06:00 h and 18:00 h for the respective days. Control mice were injected with the solvent. α,β-arteether (E MAL) was administered intramuscularly. For experiments involving the combination of α,β-arteether and griseofulvin, α,β-arteether was administered intramuscularly at 06:00 h on day 6, followed by two doses of griseofulvin at 24 h interval (at 09:00 h on day 6 and 7).
The mark [7] stands for this setting: griseofulvin-treated WT parasites vs untreated.

Turning to `COC1=CC(=O)C[C@@H](C)[C@]12Oc1c(Cl)c(OC)cc(OC)c1C2=O` [griseofulvin], the “intracerebral hemorrhages in brain sections” value in the assay on P. berghei ANKA [1] (H&E) is given as “absence of intracerebral hemorrhages”. For the same molecule, in the assay with P. berghei ANKA [1] (immunofluorescence), the “accumulation of CD3+ T cells in the cerebral vasculature” value is “lack of accumulation” and the “accumulation of parasites in the cerebral vasculature” value is “lack of accumulation”. Besides, the “decrease in 14C-labelling of free heme” value with parasite heme synthesis is reported as “around 60%”. Moreover, in the assay with P. berghei ANKA [2] (WT-infected C57BL/6 mice, single dose of 2 mg/day i.p. from day 4 until day 8, ~80% of control mice succumbed to CM within day 10), the “mice protected from CM” value is “more than 80%”. The “delay in mortality due to anemia” value in the assay on P. berghei ANKA [2] (griseofulvin-treated WT-infected C57BL/6 mice vs CM-escaped control mice) is listed as “significant delay”. Moreover, the “mice surviving beyond day 24” value with P. berghei ANKA [2] (griseofulvin-treated WT-infected mice) is on record as “around 50%”. Further, the “mice surviving beyond day 20” value in the assay with P. berghei ANKA [2] (griseofulvin-treated WT-infected mice, anemia mortality in CM-escaped control mice within day 17) was “more than 80%”. Moreover, the “growth curves of WT parasites in treated and untreated mice” value in the assay with P. berghei ANKA [3] is “very much comparable”. For the same molecule, the “in vivo parasite growth in humans” value in the assay with Plasmodium falciparum is recorded as “did not inhibit the in vivo parasite growth”. For the same molecule, in the assay with P. berghei ANKA [4], the plasma heme/hemopexin ratio entry was “comparable to that of the KO-infected mice”, the “plasma level of Hb” value is given as “comparable to that of the KO-infected mice”, the “plasma level of heme” value is listed as “comparable to that of the KO-infected mice” and the “plasma level of hemopexin” value is given as “comparable to that of the KO-infected mice”. Further, the “Hz content by light microscopy” value in the assay on hemozoin (Hz) formation (Giemsa-stained peripheral smears and paraformaldehyde-fixed pRBCs of treated mice) is given as “less Hz content”. In the assay with hemozoin (Hz) formation (setting [7]), the “decrease in free heme levels in parasites” value was “around 60%” and the “total Hz content, less than untreated parasites” value is given as 50-60%. In the assay on P. berghei ANKA [5], the “Evans blue extravasation in the brain” value is reported as “less Evans blue extravasation”.

Turning to `CCO[C@H]1O[C@@H]2O[C@@]3(C)CC[C@H]4[C@H](C)CC[C@@H]([C@H]1C)[C@@]24OO3` [α,β-arteether], the “peripheral parasitemia in blood smears” value in the assay on P. berghei ANKA [6] (single intramuscular dose of 0.25 mg/mouse on day 6) is recorded as “clearance”. Also, the “WT-infected mice developing CM” value in the assay with P. berghei ANKA [6] (single intramuscular dose of 0.25 mg/mouse on day 6, parasitemia around 10%) is 60-70%.
